Measurements published in patent US12509431B2, “1,4-dihydroquinazolinone compounds and uses thereof” (Edgewise Therapeutics, Inc., priority 2022, dated 2025).

Columns and labels:
Assay type in all cases: biochemical
Settings in all cases: Table 7
[1] = system: Rabbit Skeletal myofibrils (rabbit psoas muscle); test: Myofibril ATPase assay (PK/LDH NADH-coupled), skeletal myofibrils
Procedure, shortened: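 Rabbit psoas myofibrils in pCa (PIPES/CaCl2/EGTA, pH 7.0) buffer; ADP coupled via PK/LDH to NADH loss, read at 340 nm every 1.5–2 min for 75 min. Slopes normalized to vehicle (100%) and fit to 4-parameter logistic for EC25, plus EC50 for inhibitors.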

Porcine Atria myofibrils = test: Myofibril ATPase assay (PK/LDH NADH-coupled), atria myofibrils
Procedure, shortened: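 Porcine atrial myofibril ATPase followed via PK/LDH-coupled NADH depletion, absorbance at 340 nm read every 1.5-2 min over 75 min. Slopes (mAU/min) normalized to vehicle as 100% and fit to a 4-parameter logistic; EC25% derived, plus EC50% for inhibitors.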

[2] = target: T1, Porcine Ventricle myofibrils (left ventricle of Yucatan minipigs) (Sus scrofa, UniProt P79293); test: Myofibril ATPase assay (PK/LDH NADH-coupled), ventricle myofibrils
T1 construct: Myofibrils from porcine cardiac muscle was isolated from the left ventricle of Yucatan minipigs; tissue Exemplar Genetics; host or cells: left ventricle of Yucatan minipigs
T1 sequence (P79293 whole entry): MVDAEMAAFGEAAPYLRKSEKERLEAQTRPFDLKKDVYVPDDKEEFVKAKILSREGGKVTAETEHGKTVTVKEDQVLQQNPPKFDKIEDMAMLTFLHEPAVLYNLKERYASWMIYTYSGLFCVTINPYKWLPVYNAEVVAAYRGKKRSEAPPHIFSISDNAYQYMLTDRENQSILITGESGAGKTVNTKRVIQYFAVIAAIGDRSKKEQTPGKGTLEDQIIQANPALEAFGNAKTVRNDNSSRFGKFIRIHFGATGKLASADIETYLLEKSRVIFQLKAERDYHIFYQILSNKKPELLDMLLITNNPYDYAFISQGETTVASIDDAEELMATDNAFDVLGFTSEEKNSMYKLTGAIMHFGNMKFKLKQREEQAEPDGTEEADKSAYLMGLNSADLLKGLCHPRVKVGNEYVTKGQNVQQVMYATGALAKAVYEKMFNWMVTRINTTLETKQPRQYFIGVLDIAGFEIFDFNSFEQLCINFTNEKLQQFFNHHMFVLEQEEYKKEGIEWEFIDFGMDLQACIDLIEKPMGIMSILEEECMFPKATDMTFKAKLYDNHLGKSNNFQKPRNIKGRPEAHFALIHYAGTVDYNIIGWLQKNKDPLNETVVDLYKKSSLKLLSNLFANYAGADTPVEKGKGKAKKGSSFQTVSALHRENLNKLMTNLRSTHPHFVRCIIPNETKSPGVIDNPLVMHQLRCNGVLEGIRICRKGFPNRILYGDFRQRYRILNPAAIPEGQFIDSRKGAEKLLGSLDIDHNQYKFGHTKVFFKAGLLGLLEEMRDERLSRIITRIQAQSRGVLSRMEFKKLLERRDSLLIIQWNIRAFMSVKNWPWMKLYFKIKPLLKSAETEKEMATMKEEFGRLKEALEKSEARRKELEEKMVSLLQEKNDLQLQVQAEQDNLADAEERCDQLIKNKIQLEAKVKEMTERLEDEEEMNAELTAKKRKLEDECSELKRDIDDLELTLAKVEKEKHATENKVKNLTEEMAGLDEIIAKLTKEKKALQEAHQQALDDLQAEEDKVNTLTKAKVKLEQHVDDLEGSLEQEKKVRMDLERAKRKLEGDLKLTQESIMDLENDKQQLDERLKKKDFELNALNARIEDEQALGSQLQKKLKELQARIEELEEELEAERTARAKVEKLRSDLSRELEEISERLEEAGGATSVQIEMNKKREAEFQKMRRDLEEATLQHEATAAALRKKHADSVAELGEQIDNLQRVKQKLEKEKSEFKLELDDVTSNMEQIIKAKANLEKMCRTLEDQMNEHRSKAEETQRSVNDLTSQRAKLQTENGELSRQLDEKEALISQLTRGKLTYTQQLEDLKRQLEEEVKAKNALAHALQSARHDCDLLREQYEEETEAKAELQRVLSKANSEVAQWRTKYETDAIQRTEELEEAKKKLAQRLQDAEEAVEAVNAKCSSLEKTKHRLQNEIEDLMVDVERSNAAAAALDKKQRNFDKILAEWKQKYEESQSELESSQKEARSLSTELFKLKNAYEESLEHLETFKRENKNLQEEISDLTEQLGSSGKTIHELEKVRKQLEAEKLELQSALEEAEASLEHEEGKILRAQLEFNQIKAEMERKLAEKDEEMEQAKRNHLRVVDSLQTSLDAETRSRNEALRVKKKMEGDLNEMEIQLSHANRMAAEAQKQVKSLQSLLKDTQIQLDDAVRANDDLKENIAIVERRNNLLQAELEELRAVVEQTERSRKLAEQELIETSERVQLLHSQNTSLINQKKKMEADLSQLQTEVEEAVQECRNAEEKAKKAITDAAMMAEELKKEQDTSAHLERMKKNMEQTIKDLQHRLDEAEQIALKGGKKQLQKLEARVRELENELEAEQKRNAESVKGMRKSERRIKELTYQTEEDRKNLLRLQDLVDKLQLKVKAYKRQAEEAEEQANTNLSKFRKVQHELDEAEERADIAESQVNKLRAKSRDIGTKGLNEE
Procedure, shortened: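 Yucatan minipig left-ventricle myofibrils; ATPase measured by PK/LDH-coupled NADH loss at 340 nm, read every 1.5-2 min for 75 min. Slopes normalized to vehicle (100%) and fit to 4-parameter logistic model; EC25 and, for inhibitors, EC50 calculated.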

Structure (SMILES)	Rabbit Psoas IC25 [1] [µM]	Porcine Atria IC25 (Porcine Atria myofibrils) [µM]	Porcine Ventricle IC25 [2] [µM]
C[C@H](NC(=O)CN1C(=O)Nc2ccc(O)nc2C12CC2)c1ccc(F)cc1F [Compound N42]	100	100.00	100
O=C(CN1C(=O)Nc2cccnc2C12CC2)N[C@H](CO)c1ccc(F)cc1F [Compound N43]	100	32.69	100
O=C(CN1C(=O)Nc2cccnc2C12CC2)N[C@@H](CO)c1ccc(F)cc1F [Compound N44]	0.5658	1.18	18.96
C[C@H](NC(=O)[C@H](C)N1Cc2nc(C#N)ccc2NC1=O)c1ccc(F)cc1F [Compound N45]	100	14.99	100
C[C@H](NC(=O)[C@@H](C)N1Cc2nc(C#N)ccc2NC1=O)c1ccc(F)cc1F [Compound N46]	100	100.00	100
C[C@@H](NC(=O)CN1C(=O)Nc2cccnc2C12CC2)c1ncc(F)cc1F [Compound N47]	0.2942	0.67	6.077
C[C@H](NC(=O)CN1C(=O)Nc2cccnc2C12CC2)c1ncc(F)cc1F [Compound N48]	100	100.00	100
C[C@H](NC(=O)CN1Cc2c(Cl)cncc2NC1=O)c1ccc(F)cc1F [Compound N56, 2-{5-Chloro-2-oxo-1H,4H-pyrido[3,4-d]pyrimidin-3-yl}-N-[(1S)-1-(2,4-difluorophenyl)ethyl]acetamide]	86.07	100.00	100
Cc1c(F)cnc2c1CN(CC(=O)N[C@@H](C)c1ccc(F)cc1F)C(=O)N2 [Compound N57, N-[(1S)-1-(2,4-Difluorophenyl)ethyl]-2-{6-fluoro-5-methyl-2-oxo-1H,4H-pyrido[2,3-d]pyrimidin-3-yl}acetamide]	6.748	12.15	100

Second part, the compound after the results:

Rabbit Psoas IC25 [1] [µM]	Porcine Atria IC25 (Porcine Atria myofibrils) [µM]	Porcine Ventricle IC25 [2] [µM]	Structure (SMILES)
5.343	60.44	100	C[C@@H](NC(=O)CN1Cc2c(C#N)cncc2NC1=O)c1ncc(F)cc1F [Compound N38]
1.979	9.59	51.8	C[C@H](NC(=O)CN1Cc2c(C#N)cncc2NC1=O)c1ncc(F)cc1F [Compound N39]
4.177	87.45	100	N#Cc1nccc2c1CN(CC(=O)N[C@H](CO)c1ccc(F)cc1F)C(=O)N2 [Compound N40]
0.0762	1.12	2.357	N#Cc1nccc2c1CN(CC(=O)N[C@@H](CO)c1ccc(F)cc1F)C(=O)N2 [Compound N41]
100	100.00	100	O=C(CN1Cc2c(ccnc2C(F)(F)F)NC1=O)N[C@H](CO)c1ncc(F)cc1F [Compound N49]
2.278	9.91	100	O=C(CN1Cc2c(ccnc2C(F)(F)F)NC1=O)N[C@@H](CO)c1ncc(F)cc1F [Compound N50]
100	100.00	100	CC(NC(=O)CN1Cc2c(ccnc2C2CC2(F)F)NC1=O)c1ncc(F)cc1F (stereo not drawn) [Compound N51]
15.28	98.42	100	Cc1c(F)cnc2c1CN(CC(=O)N[C@H](C)c1ncc(F)cc1F)C(=O)N2 [Compound N52]
100	100.00	100	Cc1c(F)cnc2c1CN(CC(=O)N[C@@H](C)c1ncc(F)cc1F)C(=O)N2 [Compound N53]
